Measurements taken from patent US12428406B2 (PMV Pharmaceuticals, Inc., priority 2019, dated 2025).

target: T1, p53 Y220C (Homo sapiens, UniProt P04637, Y220C); assay: In vitro DNA binding activity assay (HTRF / TR-FRET): stabilization of p53 Y220C and increase of its DNA binding activity; assay type: biochemical; conditions: recombinant His-tagged p53 Y220C DNA binding domain (aa 94-312), biotin-labeled consensus DNA, incubated at 27° C. or 29° C. for 60 min
T1 construct: The recombinant protein was a truncation mutant containing only amino acids 94-312 of p53; made in house; host or cells: E. coli
T1 sequence (P04637 94-312, change not shown): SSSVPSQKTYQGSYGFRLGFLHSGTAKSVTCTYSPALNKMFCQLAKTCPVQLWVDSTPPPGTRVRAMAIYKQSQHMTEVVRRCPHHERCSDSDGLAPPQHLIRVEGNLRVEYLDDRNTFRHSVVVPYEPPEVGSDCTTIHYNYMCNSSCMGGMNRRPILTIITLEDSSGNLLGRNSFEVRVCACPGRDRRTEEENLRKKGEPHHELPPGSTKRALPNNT
In short: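 Stabilization of the mutant is inferred from increased binding of His-tagged p53 Y220C to a biotin-labeled consensus DNA, detected by HTRF with europium-streptavidin and APC-anti-His antibody. The concentration giving a 50% rise over compound-free binding is reported as SC150.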

Compound	SC150 (concentration of the compound required to increase the DNA binding activity by 50%)
CN1CC[C@H](Nc2cccc3c2cc(C#CCNc2ccc(S(C)(=O)=O)cc2O)n3CC(F)(F)F)[C@H](F)C1 [Compound 835A, 2-{[3-(4-{[(3R,4S)-3-fluoro-1-methylpiperidin-4-yl]amino}-1-(2,2,2-trifluoroethyl)-H-indol-2-yl)prop-2-yn-1-yl]amino}-5-methanesulfonylphenol]	+ (+ = 0 μM ≤ SC150 < 0.05 μM)
COc1cc(S(C)(=O)=O)ccc1NCC#Cc1cc2c(N[C@H]3CCN(C(C)C)C[C@H]3F)cccc2n1CC(F)(F)F [Compound 803A]	+ (+ = 0 μM ≤ SC150 < 0.05 μM)
COc1cc(C(=O)O)ccc1NCC#Cc1cc2c(N[C@@H]3CCN(C)C[C@H]3F)cccc2n1CC(F)(F)F [Compound 788A, 4-{[3-(4-{[(3R,4R)-3-fluoro-1-methylpiperidin-4-yl]amino}-1-(2,2,2-trifluoroethyl)-1H-indol-2-yl)prop-2-yn-1-yl]amino}-3-methoxybenzoic acid]	+ (+ = 0 μM ≤ SC150 < 0.05 μM)
COC[C@@H](O)CN1CCC(Nc2cccc3c2cc(C#CCNc2ccc(S(C)(=O)=O)cc2OC)n3CC(F)(F)F)CC1 [Compound 612A, (2S)-1-{4-[(2-{3-[(4-methanesulfonyl-2-methoxyphenyl)amino]prop-1-yn-1-yl}-1-(2,2,2-trifluoroethyl)-1H-indol-4-yl)amino]piperidin-1-yl}-3-methoxypropan-2-ol]	+ (+ = 0 μM ≤ SC150 < 0.05 μM)
COc1cc(S(=O)(=O)NC2CCOCC2)ccc1NCC#Cc1cc2c(NC3CCN(C)CC3)cccc2n1CC(F)(F)F [Compound 470A, 3-methoxy-4-[(3-{4-[(1-methylpiperidin-4-yl)amino]-1-(2,2,2-trifluoroethyl)-1H-indol-2-yl}prop-2-yn-1-yl)amino]-N-(oxan-4-yl)benzene-1-sulfonamide]	+ (+ = 0 μM ≤ SC150 < 0.05 μM)
COc1cc(S(N)(=O)=O)ccc1NCC#Cc1cc2c(N[C@H]3CC[C@@H](N4CC5(COC5)C4)CC3)cccc2n1CC(F)(F)F [Compound 204A, 3-methoxy-4-{[3-(4-{[(1R,4R)-4-{2-oxa-6-azaspiro[3.3]heptan-6-yl}cyclohexyl]amino}-1-(2,2,2-trifluoroethyl)-1H-indol-2-yl)prop-2-yn-1-yl]amino}benzene-1-sulfonamide]	+ (+ = 0 μM ≤ SC150 < 0.05 μM)
COc1cc(C(=O)NC[C@H](C)O)ccc1NCC#Cc1cc2c(N[C@@H]3CCN(C)C[C@@H]3F)cccc2n1CC(F)(F)F [Compound 961A, 4-{[3-(4-{[(3S,4R)-3-fluoro-1-methylpiperidin-4-yl]amino}-1-(2,2,2-trifluoroethyl)-1H-indol-2-yl)prop-2-yn-1-yl]amino}-N-[(2S)-2-hydroxypropyl]-3-methoxybenzamide]	+ (+ = 0 μM ≤ SC150 < 0.05 μM)
COc1cc(C(=O)N2CCC(N(C)C)CC2)ccc1NCC#Cc1cc2c(NC3CCN(C)CC3)cccc2n1CC(F)(F)F [Compound 499A, 2-[3-({4-[4-(dimethylamino)piperidine-1-carbonyl]-2-methoxyphenyl}amino)prop-1-yn-1-yl]-N-(1-methylpiperidin-4-yl)-1-(2,2,2-trifluoroethyl)-1H-indol-4-amine]	+ (+ = 0 μM ≤ SC150 < 0.05 μM)
NS(=O)(=O)c1ccc(NCC#Cc2cc3c(N[C@H]4CC[C@H](N5CC6(COC6)C5)CC4)cccc3n2CC(F)(F)F)c(OCF)c1 [Compound 261A, 3-(fluoromethoxy)-4-{[3-(4-{[(1R,4R)-4-{2-oxa-6-azaspiro[3.3]heptan-6-yl}cyclo-hexyl]amino}-1-(2,2,2-trifluoroethyl)-1H-indol-2-yl)prop-2-yn-1-yl]amino}benzene-1-sulfonamide]	+ (+ = 0 μM ≤ SC150 < 0.05 μM)
COc1cc(S(C)(=O)=O)ccc1NCC#Cc1cc2c(N[C@@H]3CCN(C(C)C)C[C@@H]3F)cccc2n1CC(F)(F)F [Compound 802A]	+ (+ = 0 μM ≤ SC150 < 0.05 μM)
CNC(=O)c1ccc(NCC#Cc2cc3c(N[C@H]4CC[C@H](N5CC(S(C)(=O)=O)C5)CC4)cccc3n2CC(F)(F)F)c(OC)c1 [Compound 192A, 3-methoxy-N-methyl-4-{[3-(4-{[(1R,4R)-4-(3-methanesulfonyl-azetidin-1-yl)cyclo-hexyl]amino}-1-(2,2,2-trifluoroethyl)-1H-indol-2-yl)prop-2-yn-1-yl]amino}benzamide]	+ (+ = 0 μM ≤ SC150 < 0.05 μM)

Results, then the compound that gave them:

SC150 (concentration of the compound required to increase the DNA binding activity by 50%)	Compound
+ (+ = 0 μM ≤ SC150 < 0.05 μM)	CNC(=O)c1ccc(NCC#Cc2cc3c(N[C@H]4CC[C@H](N5CCC(OC)CC5)CC4)cccc3n2CC(F)(F)F)c(OC)c1 [Compound 352A, 3-methoxy-N-methyl-4-{[3-(4-{[(1R,4R)-4-(4-methoxypiperidin-1-yl)cyclohexyl]amino}-1-(2,2,2-trifluoroethyl)-1H-indol-2-yl)prop-2-yn-1-yl]amino}benzamide]
+ (+ = 0 μM ≤ SC150 < 0.05 μM)	COc1cc(S(C)(=O)=O)ccc1NCC#Cc1cc2c(N[C@H]3CC[C@H](N4CCC(OC)CC4)CC3)cccc2n1CC(F)(F)F [Compound 350A, 2-{3-[(4-methane-sulfonyl-2-methoxy-phenyl)amino]prop-1-yn-1-yl}-N-[(1R,4R)-4-(4-methoxypiperidin-1-yl)cyclohexyl]-1-(2,2,2-trifluoroethyl)-1H-indol-4-amine]
+ (+ = 0 μM ≤ SC150 < 0.05 μM)	COc1cc(S(N)(=O)=O)ccc1NCC#Cc1cc2c(N[C@H]3CC[C@H](N4CC[S+]([O-])CC4)CC3)cccc2n1CC(F)(F)F [Compound 370A, 3-methoxy-4-{[3-(4-{[(1R,4R)-4-(1-oxo-1λ^4-thiomorpholin-4-yl)cyclohexyl]amino}-1-(2,2,2-trifluoro-ethyl)-1H-indol-2-yl)prop-2-yn-1-yl]amino} benzene-1-sulfonamide]
+ (+ = 0 μM ≤ SC150 < 0.05 μM)	COc1cc(S(N)(=O)=O)ccc1NCC#Cc1cc2c(NC3CC4(COC4)C3)cccc2n1CC(F)(F)F [Compound 18A]
+ (+ = 0 μM ≤ SC150 < 0.05 μM)	CNC(=O)c1ccc(NCC#Cc2cc3c(N[C@H]4CC[C@H](N5CCC(OC)C5)CC4)cccc3n2CC(F)(F)F)c(OC)c1 (stereo partly drawn) [Compound 428A, 3-methoxy-N-methyl-4-{[3-(4-{[(1R,4R)-4-(3-methoxypyrrolidin-1-yl)cyclohexyl]amino}-1-(2,2,2-trifluoroethyl)-1H-indol-2-yl)prop-2-yn-1-yl]amino}benzamide]
+ (+ = 0 μM ≤ SC150 < 0.05 μM)	COc1cc(S(=O)(=O)N(C)CCO)ccc1NCC#Cc1cc2c(NC3CCN(C)CC3)cccc2n1CC(F)(F)F [Compound 472A, N-(2-hydroxyethyl)-3-methoxy-N-methyl-4-[(3-{4-[(1-methylpiperidin-4-yl)amino]-1-(2,2,2-trifluoroethyl)-1H-indol-2-yl}prop-2-yn-1-yl)amino]benzene-1-sulfonamide]
+ (+ = 0 μM ≤ SC150 < 0.05 μM)	COc1cc(S(C)(=O)=O)ccc1NCC#Cc1cc2c(N[C@H]3CCC[C@@H](O)C3)cccc2n1CC(F)(F)F (relative stereo) [Compound 30A, rel-(1R,3S)-3-[(2-{3-[(4-methanesulfonyl-2-methoxyphenyl)amino]prop-1-yn-1-yl}-1-(2,2,2-trifluoroethyl)-1H-indol-4-yl)amino] cyclohexan-1-ol]
+ (+ = 0 μM ≤ SC150 < 0.05 μM)	CS(=O)(=O)c1ccc(NCC#Cc2cc3c(N[C@H]4CC[C@@H](N5CC6(COC6)C5)CC4)cccc3n2CC(F)(F)F)c(O)c1 [Compound 215A, 5-methanesulfonyl-2-{[3-(4-{[(1S,4S)-4-{2-oxa-6-azaspiro [3.3]heptan-6-yl}cyclo-hexyl]amino}-1-(2,2,2-trifluoroethyl)-1H-indol-2-yl)prop-2-yn-1-yl]amino}phenol]
+ (+ = 0 μM ≤ SC150 < 0.05 μM)	CNC(=O)c1ccc(NCC#Cc2cc3c(NC4CCOCC4)cccc3n2CC(F)(F)F)c(OC)c1 [Compound 1003A]
+ (+ = 0 μM ≤ SC150 < 0.05 μM)	CNC(=O)c1ccc(NCC#Cc2cc3c(N[C@H]4CC[C@H](N(C)C)CC4)cccc3n2CC(F)(F)F)c(OCCOC)c1 [Compound 103A, 3-(2-methoxyethoxy)-N-methyl-4-{[3-(4-{[(1R,4R)-4-(dimethylamino)cyclo-hexyl]amino}-1-(2,2,2-trifluoroethyl)-1H-indol-2-yl)prop-2-yn-1-yl]amino}benzamide]
+ (+ = 0 μM ≤ SC150 < 0.05 μM)	COc1cc(S(N)(=O)=O)ccc1NCC#Cc1cc2c(NC3CCN(C[C@H](O)CO)CC3)cccc2n1CC(F)(F)F [Compound 549A, (rac)-4-({3-[4-({1-[2,3-dihydroxypropyl]piperidin-4-yl}amino)-1-(2,2,2-trifluoroethyl)-1H-indol-2-yl]prop-2-yn-1-yl}amino)-3-methoxybenzene-1-sulfonamide]
+ (+ = 0 μM ≤ SC150 < 0.05 μM)	COc1cc(C(N)=O)ccc1NCC#Cc1cc2c(N[C@H]3CC[C@H](N4CC5(CCCOC5)C4)CC3)cccc2n1CC(F)(F)F [Compound 333A, 3-methoxy-4-{[3-(4-{[(1R,4R)-4-{6-oxa-2-azaspiro[3.5]nonan-2-yl}cyclohexyl]amino}-1-(2,2,2-trifluoroethyl)-1H-indol-2-yl)prop-2-yn-1-yl]amino}benzamide]
